Reference: article PMC6017444, “Effects of Lysozyme on the Activity of Ionic of Fluoroquinolone Species” (Molecules : A Journal of Synthetic Chemistry and Natural …, 2018)

Molecular target: T1, lysozyme (Lyz) from chicken egg white (Gallus gallus, UniProt P00698)
T1 construct: native mature protein from egg white (signal peptide removed), 129 residues, four disulfides, commercial (Sigma-Aldrich), used without further purification
Test: quenching of ligand fluorescence by protein (excitation […] nm), Stern-Volmer, static
Conditions: pH 7.4, 298 K, 10 mM Trizma; zwitterionic species; KSV taken as binding constant

T1 sequence (P00698 19-147): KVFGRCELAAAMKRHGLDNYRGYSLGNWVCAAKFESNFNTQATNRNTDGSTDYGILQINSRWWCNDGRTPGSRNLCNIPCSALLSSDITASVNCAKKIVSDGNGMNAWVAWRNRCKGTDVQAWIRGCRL

Row | Structure (SMILES) | Stern-Volmer binding constant (KSV)
1 | O=C(O)c1cn(C2CC2)c2cc(N3CCNCC3)c(F)cc2c1=O [Ciprofloxacin, 1-cyclopropyl-6-fluoro-4-oxo-7-(piperazin-1-yl)-1,4-dihydroquinoline-3-carboxylic acid] | (1.80 ± 0.01) × 10^4 L mol^-1
2 | C[C@H]1COc2c(N3CCN(C)CC3)c(F)cc3c(=O)c(C(=O)O)cn1c23 [Levofloxacin] | (0.27 ± 0.02) × 10^4 L mol^-1
